# From patent US20230381170A1, “METHOD FOR TREATING ALS/FTD THROUGH DEGRADATION OF RNA REPEAT EXPANSION” (University of Florida Research Foundation, Incorporated, priority 2020, published 2023)
# Tests used:
# r(G4C2)8 = assay: RIBOTAC cleavage of r(G4C2)8 in vitro, FRET assay with RNase L; type: biochemical; conditions: r(G4C2)8 labeled Cy5/Cy3
# Procedure: RIBOTAC Cleavage of […] in vitro: Gel Analysis. A model of r(G4C2)^exp, r(G4C2)8 was radioactively labeled at its 5′ end and purified on a denaturing 15% polyacrylamide gel as previously described (12, 57). Then, 25 nM of labeled RNA was folded by heating at 95° C. for 5 min in 1× Rnase L buffer (25 mM Tris-HCl, pH7.4, and 100 mM NaCl) and allowed to slowly cool to room temperature. To the folded RNA was added 2-Mercaptoethanol (7 mM final concentration), ATP (50 µM final concentration), and MgCl2 (10 mM final concentration). Compound was added, and the samples were incubated for 15 min at room temperature. Next, Rnase L was added to a final concentration of 25 or 50 nM, and the samples were incubated at 37° C. (1 h or overnight). Fragments were separated on a denaturing 15% polyacrylamide gel, imaged by phosphorimaging with a Typhoon FLA 9500, and quantified with BioRad's QuantityOne software. All studies were performed in duplicate.
# RIBOTAC Cleavage of r(G4C2)8 in vitro: FRET Assay. A FRET assay was developed to monitor RIBOTAC-induced cleavage of r(G4C2)8 by Rnase L. This assay uses r(G4C2)8 labeled with Cy5 and Cy3, at the 5′ and 3′ end, respectively (Dharmacon). […] Fluorescence was measured on a Molecular Devices SpectraMax M5 plate reader (Cy3, Ex.: 554 nm; Em.: 568 nm; Cy5, Ex.: 649 nm, Em.: 666 nm; FRET, Ex.: 554 nm, Em.: 666 nm). […]
# [1] = tested on: r(G4C2)exp-containing intron 1; assay: C9orf72 intron 1 RT-qPCR in c9ALS iPSC-derived spinal neurons; type: cell-based, human
# Procedure: iPSCs were differentiated into spinal neuron cells using a previously the previously described direct induced motor neuron (diMNs) differentiation protocol (58) with modifications. Briefly, iPSCs were plated into Matrigel-coated 100 mm dishes (30-40% confluence). Neuroepithelial induction was performed by replacing the iPSC maintenance medium with Stage 1 medium [47.5% IMDM (Iscove's Modified Dulbecco's Medium) medium, 47.5% F12 medium, 1% NEAA (Non-Essential Amino Acid) (Life Technologies), 2% B27 (Invitrogen), 1% N2, 1% PSA (Penicillin-Streptomycin-Amphotericin), 0.2 μM LDN193189 (Stemgent), 10 μM SB431542 ([…] Technologies) and 3 μM CHIR99021 (Sigma-Aldrich)]. After daily medium changes for 6 days, cells were detached with Accutase and seeded into 6-well plates (1.5×10^6 cells/well) in 3 mL Stage 2 medium. Cells were maintained in Stage 2 medium [Stage 1 medium supplemented with 0.1 μM All-trans RA (Sigma-Aldrich) and 1 μM *SAG (Cayman Chemicals)], with daily changes, through Day 11. […]
# Measuring Levels of C9orf72 and C9orf72 Variants by RT-qPCR. […] RNA was extracted as described above and the expression of C9orf72 variants was determined by RT-qPCR. […] RNA was extracted as described above and the expression of C9orf72 variants was determined by RT-qPCR.
# [2] = tested on: Poly(GP), Poly(GA), TDP-43 inclusions; assay: Immunohistochemistry of sagittal brain sections of +/+PWR500 mice; type: in vivo, mouse; conditions: cortex
# Procedure: Therapeutic Efficacy in a c9ALS/FD mouse model. All animal studies were completed as approved by the Scripps Florida Institutional Animal Care and Use Committee. A total of 24 mice (12+/+PWR500 [7 Male and 5 Female] and 12 WT [6 Male and 6 Female]) mice, age- and gender-matched and ranging in age from 18-22 weeks old were used in therapeutic efficacy studies (Table 6). Mice were anesthetized by intraperitoneal (i.p.) injection of 10 mg/mL Ketamine:1 mg/mL Xylazine solution. Intracerebroventricular (ICV) stereotactic injections of 10 μL of 7 (33 nmol) were administered into the right ventricle using the following coordinates: 0.2 mm posterior and 1.0 mm lateral to the right from the bregma and 3 mm deep. Mice were treated with 7 or vehicle consisting of 1% DMSO in Saline. Three weeks post-treatment, mice were euthanized, and tissue was harvested for study.
# Immunohistochemistry. Tissue was excised postmortem, and brain tissue was sliced at the midline. The right hemisphere was stored in 10% neutral buffered formalin for 48 h. Tissue processing, embedding and sectioning were carried out by the Scripps Florida's Histology Core. Formalin-fixed tissue was placed on a paraffin processor (Sakura Tissue-Tek VIPS), embedded in paraffin, sectioned a 4 μm, and mounted on plus slides. The slides were optimized with the appropriate primary antibody dilutions (see below) on the Leica BOND-MAX platform followed by the Leica Refine Detection Kit containing the secondary polymer, DAB chromagen and counterstain. After dehydration in graded alcohols and cleared in xylene, the slides were cover slipped with a permanent mounting medium, Cytoseal 60 (Thermo Scientific). Images were taken in the right hemisphere of the cortex due north of the hippocampus with 5 images were taken per slice. Average number of aggregates or inclusions per cell was assessed for each sample and reported. Statistical analysis was measured using an unpaired t-test with Welch's correction. Immunohistochemical staining and analyses were completed blinded.
smiles,measurement,setting,value
CCOC(=O)C1=C(Nc2ccccc2)S/C(=C\c2ccc(OCCOCCOCCOCCNC(=O)CCC(=O)N(CCOCCOCCOc3ccc4[nH]c5c(C)c6ccncc6c(C)c5c4c3)CCOCCOCCOc3ccc4[nH]c5c(C)c6ccncc6c(C)c5c4c3)c(O)c2)C1=O [Compound 7],FRET signal upon addition of compound and Rnase L,r(G4C2)8,dose dependently decreased
same,reduction of r(G4C2)exp-containing intron 1 abundance,[1]; 50 nM,45±11%
same,reduction of r(G4C2)exp-containing intron 1 abundance,[1]; 500 nM,64±10%
same,Poly(GA) aggregates,[2]; compared to vehicle,significant decrease
same,Poly(GP) aggregates,[2]; compared to vehicle,significant decrease
same,TDP-43 inclusions,[2]; relative to vehicle,decreased
